Assay results from paper PMC4057667, “Study on Biopharmaceutics Classification and Oral Bioavailability of a Novel Multikinase Inhibitor NCE for Cancer Therapy” (International Journal of Molecular Sciences, 2014).
Read-outs that look alike come from different tables or passages of the source.

How the values were obtained:
[1] = 1-octanol/water partition coefficient, shake-flask method; format: physicochemical; conditions: 37 °C
Protocol: The partition coefficient (logP value) is related closely to drug’s absorption in vivo. Furthermore, it can help to get a better understanding of drug’s physicochemical properties. The 1-octanol/water partition coefficient of NCE was measured by a shake-flask method. Both the 1-octanol and aqueous buffer solution were saturated before performing the experiments. Solutions of about 3.3 mM NCE were prepared in aqueous 0.1 M HCl (pH = 1.0) solution and PBS buffer (pH = 6.8) solutions. Then, 1 mL of 1-octanol was added to 9 mL of the aqueous NCE solution in glass flasks. The mixtures were then stirred in a mechanical shaker for 6 h (37 °C). Samples were left in water baths and kept at the appropriate temperature (37 °C) for at least 72 h. After that, the concentrations in the aqueous phase and 1-octanol phase were determined by HPLC, respectively. The partition coefficients were calculated by the following equation. All the partitioning experiments were performed in at least triplicate.
(1) P1-octanol/water=lg (C1-octanol/Cwater)
where P1-octanol/water is the partition coefficient value; C1-octanol is the drug’s concentration in 1-octanol phase; Cwater is the drug’s concentration in aqueous solution.

[2] = Stability in perfusion buffers; format: physicochemical; conditions: for Detected concentration / Rate of change: perfusion buffer
Protocol: Storage conditions were investigated to guarantee the samples were stable before HPLC analysis. The stability of NCE was evaluated in the perfusion solution (pH 6.5). Four aliquots of the NCE solutions were stored at room temperature for 0, 2, 4 or 6 h, respectively. Another three were stored at 4 °C for 0, 24 or 48 h, respectively. All the samples were centrifuged at a rate of 1.3 × 10^4 rpm for 10 min and then measured by HPLC. The sample concentrations were compared.

[3] = Pharmacokinetic study in beagle dogs; format: in vivo; conditions: 30 mg/kg; for AUC(0-t) / Cmax / MRT / Tmax / half-life / bioavailability: beagle, dog, plasma
Protocol: Six healthy beagle dogs (7.97 ± 0.73 kg) were randomly assigned into two groups. NCE was given to the dogs by intragastrical (i.g.) and intravenous (i.v.) administration at a dosage of 30 mg/kg. Blood was collected from the forelimb vein of the dogs at 0.25, 0.5, 0.75, 1, 2, 3, 4, 6, 8, 10, 12 and 24 h. Plasma samples were obtained by centrifuging blood at 3000 rpm for 10 min and were stored at −20 °C. Before analysis, acetonitrile was added into the plasma and the mixture was vortexed for 5 min to precipitate the protein. Then, the samples were centrifuged for 10 min at a speed of 1.3 × 10^4 rpm. The supernatant was collected and the solvent was removed by pressure blowing concentrator. Then, mobile phase was added to dissolve the residual. The concentrations of NCE in plasma were determined by HPLC.
The pharmacokinetic parameters were calculated using the pharmacokinetics-intelligent analysis module of DAS 2.1.1 software. Total areas under the concentration-time curve (AUC) after i.g. and i.v. administration were determined by extrapolation from time 0−t (AUC0−t), respectively. The oral bioavailability of NCE was estimated using the ratio of AUC values following i.g. and i.v. administration.

[4] = Biopharmaceutics Classification System (BCS) classification; conditions: IDR below borderline value of 1 mg·min^−1·cm^−2
Description: Targeted small-molecular inhibitors are promising antitumor candidates compared to the traditional chemotherapy drugs due to their high efficiency and low toxicity. Their common formulations are oral preparations with good compliance. The essential parameters controlling oral drug absorption are the permeability of the drug through the gastrointestinal (GI) membrane and the drug solubility/dissolution in GI milieu. Biopharmaceutics Classification System (BCS) is a modern tool to characterize drug permeability and solubility/dissolution [4, 5]. […] By using BCS system, some drug-drug interactions could be prevented and the in vivo bioavailability testing of the immediate release dosage forms of class I and III drugs could be bypassed. Up till now, there is rare systemic report about specific classification method according to BCS, especially for a novel drug candidate.
According to the Food and Drug Administration (FDA) guidance for biowaiver request of immediate-release solid oral dosage forms, a drug substance is considered as high soluble when the highest dose strength is soluble in ≤250 mL of aqueous media over the pH range of 1.0–7.5 [7]. However, the choice of different dose has a great impact on the dose/solubility ratio and then affects the classification of drugs. […]

[5] = test system: vascular endothelial growth factor receptor 2 (VEGFR2); design: method as in PMID 21691074; conditions: at a concentration of 10 μM; cited from earlier work
[6] = test system: fibroblast growth factor receptor 2 (FGFR2); design: method as in PMID 21691074; conditions: at a concentration of 10 μM; cited from earlier work

Compound: CNC(=O)c1cc(Oc2ccc(NC(=O)c3cccc(C(F)(F)F)c3)cc2)ccn1.Cc1ccc(S(=O)(=O)O)cc1.O [NCE, 2-methylcarbamoyl-4-{4-[3-(trifluoromethyl)benzamido]phenoxy} pyridinium 4-methylbenzenesulfonate monohydrate]
- logP at 6 h ([1]; 1-octanol / 0.1 M HCl solution (pH = 1.0)): 3.1 ± 0.04
- logP at 6 h ([1]; 1-octanol/PBS pH 6.8, pH 6.8, 1-octanol / PBS 6.8 solution): 4.2 ± 0.07
- Detected concentration ([2]; 4 °C, 24 h): 19.16 µg/mL
- Rate of change ([2]; 4 °C, 24 h): 3.38%
- Detected concentration ([2]; 4 °C, 48 h): 18.99 µg/mL
- Rate of change ([2]; 4 °C, 48 h): 4.21%
- Detected concentration ([2]; 20 °C, 0 h): 19.83 µg/mL
- Detected concentration ([2]; 20 °C, 2 h): 19.66 µg/mL
- Rate of change ([2]; 20 °C, 2 h): 0.86%
- Detected concentration ([2]; 20 °C, 4 h): 19.49 µg/mL
- Rate of change ([2]; 20 °C, 4 h): 1.70%
- Detected concentration ([2]; 20 °C, 6 h): 19.32 µg/mL
- Rate of change ([2]; 20 °C, 6 h): 2.55%
- concentration variation rates, all samples in stability study ([2]; perfusion buffers, up to 6 h at room temperature or 48 h at 4 °C): less than 5%
- i.v./i.g. AUC0−t ratio ([3]; beagle dogs): 4.19
- i.v./i.g. Cmax ratio ([3]; beagle dogs): about 11.10
- AUC(0-t) ([3]; iv, Beagle 1): 56200 ng·h/mL
- Cmax ([3]; iv, Beagle 1): 26000 ng/mL
- MRT ([3]; iv, Beagle 1): 1.84 h
- Tmax ([3]; iv, Beagle 1): 0.23 h
- half-life ([3]; iv, Beagle 1): 383 min
- AUC(0-t) ([3]; iv, Beagle 2): 34400 ng·h/mL
- Cmax ([3]; iv, Beagle 2): 23700 ng/mL
- MRT ([3]; iv, Beagle 2): 1.68 h
- Tmax ([3]; iv, Beagle 2): 0.3 h
- half-life ([3]; iv, Beagle 2): 214 min
- AUC(0-t) ([3]; iv, Beagle3): 25100 ng·h/mL
- Cmax ([3]; iv, Beagle3): 21600 ng/mL
- MRT ([3]; iv, Beagle3): 1.35 h
- Tmax ([3]; iv, Beagle3): 0.22 h
- half-life ([3]; iv, Beagle3): 554 min
- AUC(0-t) ([3]; iv, mean ± SD, n = 3): 38600 ± 16000 ng·h/mL
- Cmax ([3]; iv, mean ± SD, n = 3): 23800 ± 2230 ng/mL
- MRT ([3]; iv, mean ± SD, n = 3): 1.62 ± 0.25 h
- Tmax ([3]; iv, mean ± SD, n = 3): 0.25 ± 0.04 h
- half-life ([3]; iv, mean ± SD, n = 3): 383 ± 170 min
- AUC(0-t) ([3]; po, i.g., Beagle 4): 6860 ng·h/mL
- Cmax ([3]; po, i.g., Beagle 4): 3500 ng/mL
- MRT ([3]; po, i.g., Beagle 4): 10.8 h
- Tmax ([3]; po, i.g., Beagle 4): 2 h
- half-life ([3]; po, i.g., Beagle 4): 737 min
- bioavailability ([3]; po, i.g., Beagle 4, read-out: F, absolute bioavailability): 12.2%
- AUC(0-t) ([3]; po, i.g., Beagle 5): 13600 ng·h/mL
- Cmax ([3]; po, i.g., Beagle 5): 860 ng/mL
- MRT ([3]; po, i.g., Beagle 5): 10.6 h
- Tmax ([3]; po, i.g., Beagle 5): 1.73 h
- half-life ([3]; po, i.g., Beagle 5): 1040 min
- bioavailability ([3]; po, i.g., Beagle 5, read-out: F, absolute bioavailability): 39.6%
- AUC(0-t) ([3]; po, i.g., Beagle 6): 7160 ng·h/mL
- Cmax ([3]; po, i.g., Beagle 6): 2060 ng/mL
- MRT ([3]; po, i.g., Beagle 6): 11.2 h
- Tmax ([3]; po, i.g., Beagle 6): 2 h
- half-life ([3]; po, i.g., Beagle 6): 895 min
- bioavailability ([3]; po, i.g., Beagle 6, read-out: F, absolute bioavailability): 28.5%
- AUC(0-t) ([3]; po, i.g., mean ± SD, n = 3): 9210 ± 3820 ng·h/mL
- Cmax ([3]; po, i.g., mean ± SD, n = 3): 2140 ± 1320 ng/mL
- MRT ([3]; po, i.g., mean ± SD, n = 3): 10.8 ± 0.31 h
- Tmax ([3]; po, i.g., mean ± SD, n = 3): 1.91 ± 0.15 h
- half-life ([3]; po, i.g., mean ± SD, n = 3): 891 ± 152 min
- bioavailability ([3]; po, i.g., mean ± SD, n = 3, read-out: F, absolute bioavailability): 26.8 ± 13.8%
- solubility class [4]: low solubility
- inhibition rate [5]: 97%
- inhibition rate [6]: 65%
